“Also recorded” adds a separate entry of the source.
Tests used:
[1] = system: NIH3T3 L1 cells into which only pLNCX vector was introduced; test: Differentiation of adipocytes and oil deposition according to concentration of NADPH (Oil-Red-O); type: cell-based, mouse
Experimental: To examine the influence of IDPc on the synthesis of fatty acids, the transfectant cell lines were cultured in 10% FBS-supplemented DMEM containing insulin 5 μg/ml, 0.5 mM 3-isobutyl-1-methylxanthine (IBMX, Sigma), 1 μM dexamethasone (DEX), and penicillin-streptomycin (Gibco BRL), each 50,000 units, for two days to increase the counts of the cells to a density of approximately 3×10^4 cells/cm^2. Thereafter, the cells were further cultured for 12 days in DMEM free of IBMX and DEX while the medium was refreshed every other day. Cell culturing was carried out in a CO2 incubator at 37° C. under a wet, 5% CO2 atmosphere.
After culturing, the cells were treated with Oil-Red-O, which specifically dyes oil, to observe oil deposits formed in adipocytes. In this connection, the medium was depleted, after which 10 ml of a cacodylate buffer (90 mM cacodylate, pH 7.2, 2% formaldehyde, 2.5% glutaraldehyde, 0.025% CaCl2, 5% sucrose) was added to the cells, which was then allowed to stand at 4° C. for 1 hour. After removal of the buffer, 5 ml of Oil-Red-O in 40% isopropanol was added to the cells and slowly mixed over 1 hour, followed by washing with 40% isopropanol.
The effect of NADPH, a metabolic product of IDPc, on the deposition of cellular oils was quantitatively measured with Oil-Red-O, a dye specific for lipids. […]

isocitrate dehydrogenase = isocitrate dehydrogenase (Mus musculus, UniProt O88844); test: Screening of inhibitors against isocitrate dehydrogenase (spectrophotometry, absorbance at 340 nm); type: biochemical; conditions: change in absorbance at 340 nm with time, 25° C.
isocitrate dehydrogenase, sequence (O88844 whole entry): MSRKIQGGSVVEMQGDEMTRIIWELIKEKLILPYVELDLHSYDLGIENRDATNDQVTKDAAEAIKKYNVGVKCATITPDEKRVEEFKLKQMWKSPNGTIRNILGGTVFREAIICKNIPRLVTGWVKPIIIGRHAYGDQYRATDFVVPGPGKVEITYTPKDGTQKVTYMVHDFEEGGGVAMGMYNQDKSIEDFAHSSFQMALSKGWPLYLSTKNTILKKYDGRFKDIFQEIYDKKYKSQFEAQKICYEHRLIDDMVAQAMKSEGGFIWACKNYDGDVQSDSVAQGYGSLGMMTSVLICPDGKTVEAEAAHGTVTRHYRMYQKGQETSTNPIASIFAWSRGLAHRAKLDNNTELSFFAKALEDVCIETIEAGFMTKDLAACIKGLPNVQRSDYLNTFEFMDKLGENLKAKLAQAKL
Experimental: In this connection, spectrophotometry is very useful. In more detail, first, a spectrophotometer is adjusted to zero absorbance at 340 nm using a mixture of a ten-fold concentrated reaction buffer plus 3rd distilled water. After a crystal cuvette containing the 10× buffer, a test sample and 3rd distilled water is installed in the spectrophotometer, isocitrate dehydrogenase is added to the cuvette and a measurement is made of the change in absorbance at 340 nm with time.
Because an absorbance decreases faster in the cuvette containing a greater concentration of a sample inhibitory against the activity of the enzyme, the analysis of the spectrophotometric data enables the screening of inhibitors of isocitrate dehydrogenase.
An assay buffer (50 mM MOPS, pH 7.2, 35.5 mM triethanolamine, pH 7.2, 2 mM NADP^+, 2 mM MgCl2, 5 mM isocitrate, rotenone 1 mg/ml) and test samples were all prepared at 10× concentration. Enzymatic reactions necessary for the selection were conducted in a final volume of 1 ml at 25° C. in crystal cuvette. For use, the concentrated test samples were diluted with 3rd distilled water. The assay buffer, enzyme inhibitors, and isocitrate dehydrogenase, which all at 10× concentration, were maintained at low temperature, i.e., in ice.
A spectrophotometer was first subjected to null adjustment at 340 nm using the 10× assay buffer and 3rd distilled water. 100 μl of the sample was added, along with 100 μl of the 10× assay buffer, in a crystal cuvette, and mixed with 600 μl of 3rd distilled water. After the completion of the null adjustment, the sample cuvette was installed in the spectrophotometer, followed by adding 200 μl of isocitrate dehydrogenase and mixing the solution with the aid of a pipette. Changes in absorbance at 340 nm were monitored with time. In principle, an absorbance decreases faster in the cuvette containing a greater concentration of a sample inhibitory against the activity of the enzyme. Based on this principle, the quantification of the spectrophotometric data enabled the screening of inhibitors of isocitrate dehydrogenase.

3T3-L1 cells = test: Prevention of oil deposition in 3T3-L1 by isocitrate dehydrogenase inhibitor (Oil-Red-O); type: cell-based, mouse; conditions: cells treated with inhibitor vs no isocitrate inhibitors, FIG. 9
Text: After being treated with the isocitrate dehydrogenase inhibitors methyl isocitric acid and oxalomalic acid, 3T3-L1 cells, which remain undifferentiated, were examined for their differentiation to adipocytes. Effects of the isocitrate dehydrogenase inhibitors on fatty acid synthesis could be identified through the visualization using Oil-Red-O, a oil-specific dye.

rats = test: Restrictive effect of isocitrate dehydrogenase inhibitor on obesity in rats; type: in vivo, rat
Experimental: 26 weeks after birth, rats were compared for cellular lipid deposition when they were treated with no isocitrate dehydrogenase inhibitors and methyl isocitric acid.
A container suitable for receiving a rat was placed on a scale which was then subjected to null adjustment, after which a rat was carefully put in the container.
The livers and adipose tissues taken from inhibitor-administered rats and non-administered rats were homogenized in a buffer (0.32 M sucrose, 0.01 M Tris-Cl pH 7.4) and centrifuged at 3,000×g for 10 min. Again, the supernatant was centrifuged at 10,000×g for 15 min. A pure cytosolic fraction was obtained as the supernatant. The enzyme activity of IDPc was determined by measuring the change in the production amount of NADPH in a buffer (50 mM MOPS, pH 7.2, 35.5 mM triethanolamine, pH 7.2, 2 mM NADP^+, 2 mM MgCl2, 5 mM isocitrate, and rotenone 1 μg/ml) maintained at 25° C. Using a spectrophotometer, absorbance at 340 nm was measured for 2 min to quantify the amount of NADPH produced by the IDPc contained in the cytoplasmic protein, thereby determining the enzyme activity of IDPc. For the quantification of the enzyme, the amount which produced 1 μM of NADPH in 1 min was defined as 1 unit. Protein quantification was performed according to the Bradford assay.
In order to measure the blood triglyceride levels and total cholesterol, assay kits manufactured by Asan Pharmaceutics. Co. Ltd. were used. After being treated with an anti-coagulant, blood taken from the inhibitor-administered rats and non-administered rats was centrifuged to obtain sera. 10 μl of each of the sera was mixed with 1.5 ml of a triglyceride-assay kit [a solution of lipoproteinase 10800 U, glycerol kinase 5.4 U, peroxidase 135000 U, and L-α-glycerophosphate oxidase 160 U in 72 ml of N,N-bis(2-hydroxyethyl)-2-aminomethanesulfonic acid buffer] or 1.5 ml of a cholesterol enzyme-assay kit (a mixture of an enzyme solution (cholesterol esterase 20.5 KU/l, cholesterol oxidase 10.7 KU/l, and sodium hydroxide 1.81 g/l) and a buffer (potassium monophosphate 13.6 g/l, phenol 1.88 g/l) in the proportions of 1:1) and incubated at 37° C. for 5 min for reaction. In a microplate reader, a measurement was done by reading absorbance at 500 nm for cholesterol and at 540 nm for triglyceride, so as to quantify blood levels of triglyceride and total cholesterol. In connection to the quantification of triglyceride and cholesterol, there was utilized a standard curve which was obtained by applying the above procedure to various known concentrations of a standard solution.
A predetermined amount of the liver was taken from both the inhibitor-administered mice and non-administered mice and homogenized in 1 ml of CIAA (chloroform:isoamyl alcohol=2:1 v/v). 100 μl of the homogenate was dissolved in 200 μl of pure ethyl alcohol and mixed with 500 μl of each of the assay kits for triglyceride and cholesterol, manufactured by Asan Pharmaceutics, Co. Ltd., containing 0.5% Triton X-100 and 3 mM sodium cholate, followed by incubation at 37° C. for 10 min. After being added with 800 μl of water, each sample was measured for liver triglyceride and total cholesterol levels with the aid of a microplate reader in the same manner as in above. Likewise, the above procedure was applied to various known concentrations of a standard solution to acquire a standard curve which was used to quantify triglyceride and cholesterol levels in the liver.

`NC(=O)C1=CN([C@@H]2O[C@H](COP(=O)(O)OP(=O)(O)OC[C@H]3O[C@@H](n4cnc5c(N)ncnc54)[C@H](OP(=O)(O)O)[C@@H]3O)[C@@H](O)[C@H]2O)C=CC1` [NADPH] was tested, and the “oil deposits formed within cells (Oil-Red-O)” value ([1]; NADPH added at 0 μM, 25 μM and 50 μM to the media during differentiation into adipocytes) was “accumulated greater amounts of oils; also recorded: larger intracellular lipid deposits” and the differentiation of adipocytes ([1]; differentiated in the presence of NADPH, increasing concentration) was “direct positive influence on the differentiation of adipocytes; also recorded: higher differentiation rates”.

With `CC(NC(C)(C)C)C(=O)c1cccc(Cl)c1` (stereo not shown) [bupropion] the “inhibitory activity against isocitrate dehydrogenase” value (shortened to “inhibitory activity”) (isocitrate dehydrogenase) was “only a little inhibitory activity; also recorded: a little inhibitory effect”.

For `O=C(O)c1cccnc1` [nicotinic acid], the “inhibitory activity” value (isocitrate dehydrogenase) was “No inhibitory activity”.

`O=C(O)C(=O)C(C(=O)O)C(O)C(=O)O` (stereo not shown) [oxalomalic acid] was tested, and the “cellular oil deposits dyed with Oil-Red-O” value (3T3-L1 cells) was “reducing cellular oil deposits” and the “inhibitory activity” value (isocitrate dehydrogenase) was “strong inhibitory activity; also recorded: definite inhibitory activity”.

With `CC(O)(C(=O)O)C(CC(=O)O)C(=O)O` (stereo not shown) [methyl isocitric acid] the “arteriosclerosis index, lower” value (rats) was 10, the “body weight, inhibitor-administered vs non-administered rats” value (rats; 10-weeks old) was “No significant difference” and the “weight of epididymal fat pad, lower compared to non-administered rats” value (rats; FIG. 10a) was “about 12%”. The “weight of the liver, inhibitor-administered vs normal rats” value (rats; FIG. 10a) was “no difference”, the “blood level of total cholesterol, lower compared to non-administered rats” value (rats; FIG. 10b) was 11% and the “blood level of triglyceride, lower compared to non-administered rats” value (rats; FIG. 10b) was 20%. The “high-density lipoproteins (HDL) level, higher compared to non-administered rats” value (rats; blood, FIG. 10c) was 11%, the “cellular oil deposits dyed with Oil-Red-O” value (3T3-L1 cells) was “reducing cellular oil deposits” and the “inhibitory activity” value (isocitrate dehydrogenase) was “strong inhibitory activity; also recorded: definite inhibitory activity”.

With `NC(=O)c1cccnc1` [nicotine amide] the “inhibitory activity” value (isocitrate dehydrogenase) was “No inhibitory activity”.

Source: patent publication US20040214270A1, “Isocitrate dehydrogenase, gene thereof, and use of the same in the treatment of obesity, hyperlipidemia, and fattly liver in lipid biosynthesis” (priority 2000, published 2004)
